Key:
[1] = system: peritoneal macrophages from MyD88 knockout mice; assay: Cytokine production by peritoneal macrophages (ELISA), MyD88 knockout; assay type: cell-based, mouse; conditions: 5×10^4 cells, presence or absence of 30 U/ml IFN-γ
Protocol: (§1) 2 ml of 4% thioglycollic acid medium (DIFCO) were injected into the intraperitoneals of the wild-type mice, TLR7 knockout mice (TLR7KO), MyD88 knockout mice (MyD88KO) and TLR9 knockout mice (TLR9KO), respectively, three days later, peritoneal exudate cells were isolated from intraperitoneal of each mouse, these cells were cultured in PRMI 1640 medium (GIBCO) added with 10% fatal bovine serum (GIBCO) at 37° C. for two hours, nonadherent cells were […] by washing with Hank's buffered salt solution (HBBS; GIBCO) at iced temperature, and the adherent cells were used as peritoneal macrophages in following experiment. Total RNA (10 μg) obtained from macrophages derived from the wild-type mice (+/Y) and TLR7 knockout mouse (TLR7KO) was electrophoresed, transferred onto a nylon membrane, and hybridized with a part of TLR7 DNA, and this membrane was rehybridized with β-actin probe. It was examined by the Northern blotting. From the results shown in FIG. 3, the expression of TLR7mRNA could not be found in TLR7 knockout mice.
(§2) In addition, the measurement of cytokine generated from peritoneal macrophages was executed as follows; […] peritoneal macrophages of 2×10^5 well or 5×10^4 well were cultured in 96-well plate respectively, and after stimulated with the above-mentioned reagents for 24 h, concentration of TNF-α, IL-12p40, IL-6 and/or IFN-α were measured by ELISA according to the manual.
(§3) Before examining the reactivity of TLR7 knockout mice to imiquimod and R-848 which are imidazoquinoline group compound, firstly imiquimod or R-848 were administered to BALB/c mice (wild-type) orally at the predetermined concentration, respectively, the concentration of IFN-α, TNF-α and IL-12 in serum were measured after two hours. […] The data is shown as a mean value+/−S.D. (N=3). Similarly, the ability of these compounds to activate immune cells via TLR was examined using imiquimod or R-848 respectively. The peritoneal macrophages (5×10^4 cells) from wild-type mice and MyD88 knockout mice prepared in example 2, were stimulated by imiquimod or R-848, in the presence or absence of 30 U/ml of IFN-γ, and the concentration of TNF-α and IL-12 produced by peritoneal macrophages were measured by ELISA. […] The data is shown as a mean value+/−S.D. (N=3).

cytomegalovirus = conditions: cited from earlier work
various types of cells = conditions: cited from earlier work
human papilloma virus = conditions: actual treatment; cited from earlier work
animal model = conditions: cited from earlier work
BALB/c mice (wild-type) = assay: Serum cytokines after oral administration of imidazoquinolines; assay type: in vivo, mouse; conditions: after two hours, N=3
Protocol: as §3

[2] = system: type 2 herpes simplex virus; conditions: cited from earlier work
NF-κB and MAP kinase = conditions: cited from earlier work
[3] = system: peritoneal macrophages from wild-type mice; assay: Cytokine production by peritoneal macrophages (ELISA), wild-type; assay type: cell-based, mouse; conditions: 5×10^4 cells, presence or absence of 30 U/ml IFN-γ
Protocol: as §1, §2, §3

CC(C)Cn1cnc2c(N)nc3ccccc3c21 [imiquimod]
IL-12 produced by peritoneal macrophages [1]: hardly produced any cytokines | TNF-α produced by peritoneal macrophages [1]: hardly produced any cytokines | replication of cytomegalovirus (cytomegalovirus): inhibit the replication | induction of cytokines such as IFN-α, IL-6 and IL-12 (various types of cells): inducing cytokines such as IFN-α, IL-6 and IL-12 | treating pudendal wart (condyloma acuminatum) caused by human papilloma virus (human papilloma virus): effective | antitumor activity (animal model): antitumor activity | antivirus activity (animal model): shows antivirus activity | concentration of IFN-α in serum (BALB/c mice (wild-type)): increased depending on applied dose | concentration of IL-12 in serum (BALB/c mice (wild-type)): increased depending on applied dose | concentration of TNF-α in serum (BALB/c mice (wild-type)): increased depending on applied dose | replication of type 2 herpes simplex virus [2]: inhibit the replication | stimulation of NF-κB and MAP kinase (NF-κB and MAP kinase): stimulates | IL-12 produced by peritoneal macrophages [3]: in large amount | TNF-α produced by peritoneal macrophages [3]: in large amount
